“And” between values parts separate entries of the source, which are not always exact repeats. Identical values can stand only once.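 Five concentrations, 48 hours, 96-well plates. GI50 = concentration required for 50% inhibition of growth. Definition used: TGI = concentration required for complete inhibition of growth.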
What was measured:
Assay in all cases: NCI tumour cell line growth inhibition, 48 h
[1] = tested on: U251 CNS
[2] = tested on: UO-31 renal
[3] = tested on: M14 melanoma
[4] = tested on: SR leukemia
[5] = tested on: OVCAR-3 ovarian
[6] = tested on: RPMI-8226 leukemia
[7] = tested on: A498 renal
[8] = tested on: NCI-H460 lung
[9] = tested on: 786-0 renal
[10] = tested on: HS 578T breast

Row | Structure (SMILES) | GI50 [1] [µM] | TGI [1] [µM] | GI50 [2] [µM] | TGI [2] [µM] | GI50 [3] [µM] | TGI [3] [µM] | GI50 [4] [µM] | TGI [4] [µM] | GI50 [5] [µM] | TGI [5] [µM] | GI50 [6] [µM] | TGI [6] [µM] | GI50 [7] [µM] | TGI [7] | GI50 [8] [µM] | TGI [8] [µM] | GI50 [9] [µM] | TGI [9] [µM] | GI50 [10] [µM] | TGI [10] [µM]
1 | COc1ccc(OC(=O)O[C@H]2[C@H](O[C@H]3[C@@H](O)COC(O[C@H]4C[C@H]5[C@@H]6CC=C7C[C@@H](O)CC[C@]7(C)[C@H]6CC[C@]5(C)[C@H]4[C@H](C)C(=O)CCC(C)C)[C@@H]3OC(C)=O)OC[C@@H](O)[C@@H]2O)cc1 (some centres not stated) | 0.0121 | 16.2 | 0.0874 | 0.995 | 0.04 | 0.262 | 0.0102 | 21.4 | 10.7 | 24.5 | < 0.01 | 0.0321 | 0.0116 | 0.0559 µM | 0.0524 | 3.33 | < 0.01 | 3.81 | < 0.01 | 0.185
2 | CC[C@H](C)[C@H](NC(=O)[C@H]1CCCCN1C)C(=O)N(C)[C@H](CCc1nc(C(=O)N[C@@H](Cc2ccccc2)C[C@H](C)C(=O)OC)cs1)C(C)C | 0.345 | > 25 | 1.78 | 13.7 | 0.215 | – | 0.0726 | 10.8 | 0.0867 | – | 0.0929 | 8.17 | 0.14 | 2.75 µM | 0.395 | > 10.3 | 0.432 | > 11.6 | 0.322 | 5.29
3 | O=c1[nH]c(=O)n(C2CC(O)C(CS)O2)cc1F (configuration not stated) | – | > 100 | – | > 100 | – | > 100 | – | > 100 | – | > 100 | – | > 100 | – | > 86.2 µM | – | > 100 | – | > 100 | – | > 100
4 | CCCNC(=S)N/N=C(\C)c1ccccn1 | 0.0497 | > 100 | 0.293 | > 82.8 | 0.0681 | 3.65 | 0.0517 | 4.37 | < 0.01 | > 100 | 0.0268 | > 100 | 0.435 | 4.83 µM | 0.242 | 4.92 | 0.959 | > 26 | 1.42 | > 100
5 | COc1ccc(C2CC(=O)c3c(O)c(OC)c(OC)c(OC)c3O2)c(O)c1 (configuration not stated) | 0.0985 | 36.1 | 1.09 | 21.4 | 0.0834 | 15.4 | 0.0582 | 27 | – | – | 0.372 | 18.4 | 0.126 | 0.984 µM | 0.0637 | 10.9 | 0.839 | > 100 | 0.201 | 48.7
6 | O=C(C[C@@H](C(=O)NCc1cccc(C(F)(F)F)c1)N1C(=O)[C@@H](N2C(=O)OC[C@@H]2c2ccccc2)[C@H]1/C=C/c1ccccc1)NC1CCN(Cc2ccccc2)CC1 | 4.58 | 17.2 | 13.5 | 55.3 | 4.58 | 20.4 | 1.89 | 5.43 | 10.4 | 25.1 | 2.22 | 5.31 | 2.19 | 11.9 µM | 6.58 | 21.8 | 6.51 | 22.6 | 10.3 | 29.6
7 | CC(=O)[O][Hg][c]1c(C)c(C)c(C)c(C)c1C | 0.399 | 1.61 | 3.45 | 7.74 | 1.35 | 2.65 | 0.127 | – | 1.82 | 3.31 | 1.8 | 6.22 | 2.68 | 5.4 µM | 0.747 | 2.26 | 1.65 | 3.03 | 0.899 | 3.52
8 | O=C(O)c1cc(N=Nc2ccc([As](=O)(O)O)cc2)ccc1O | – | > 100 | – | > 100 | – | > 100 | – | > 100 | – | > 100 | – | > 100 | – | > 100 µM | – | > 100 | – | > 100 | – | > 100
9 | COC(=O)[C@]12CCC(C)(C)C[C@H]1C1=CC[C@@H]3[C@@]4(C)C/C(=C/c5cccnc5)C(=O)C(C)(C)[C@@H]4CC[C@@]3(C)[C@]1(C)CC2 | 13.5 | 46.9 | 3.21 | 24.4 | 3.63 | 13.4 | 4.52 | 93.6 | 4.16 | 27.9 | 2.31 | 6.39 | 11.6 | 26.4 µM | 5.53 | 26.6 | 3.58 | 17.4 | 22.7 | > 100
10 | CC(C)(C)OC(=O)N(CCCN(CCn1c2c(c3ccccc3c1=O)C(=O)c1ccccc1-2)C(=O)OC(C)(C)C)CCn1c2c(c3ccccc3c1=O)C(=O)c1ccccc1-2 | 15.2 | > 50 | > 50 | > 50 | > 50 | > 50 | 2.07 | 8.87 | 21.2 | > 50 | 7.21 | 48.6 | > 50 | > 50 µM | 49.7 | > 50 | 16.5 | > 50 | 41.1 | > 50
11 | NCCCCn1c2c(c3ccccc3c1=O)C(=O)c1ccccc1-2 | 0.0485 | 0.824 | 0.123 | 1.45 | 0.417 | 1.86 | – | 0.0486 | 0.502 | 4.22 | 0.0887 | 0.932 | 0.543 | 1.71 µM | < 0.0218 | 0.614 | 0.0639 | 0.573 | 0.538 | 4.75
12 | Cc1cc(C2CCCCC2)n(O)c(=O)c1 | 1.13 | – | 0.552 | > 100 | 1.39 | – | 0.66 | > 100 | 0.521 | 54 | – | 46.8 | 7 | > 100 µM and 46.7 µM | 0.507 | – | 2.26 | > 100 | 46 | > 100
13 | COc1cccc(NCc2nnc(Nc3ccc(Cl)cc3)c3ccccc23)c1 | 2.78 | 6.54 | 0.608 | 5.28 | 0.85 | 4.69 | 0.979 | 8.85 | 1.65 | 10 | 1.48 | 7.51 | 1.27 | 4.42 µM | 2.69 | 7.14 | 2.22 | 7.62 | 2.9 | 11.5
14 | Nc1nccc(-c2c(-c3ccc(F)cc3)ncn2CCCN2CCOCC2)n1 | > 25 | > 25 | 11.6 | > 25 | > 25 | > 25 | > 25 | > 25 | > 25 | > 25 | > 25 | > 25 | > 19.2 | > 25 µM | > 25 | > 25 | > 25 | > 25 | > 25 | > 25
15 | COc1ccc(/C(=N/Nc2ccc([N+](=O)[O-])cc2)Sc2cc(Cl)c(C)cc2S(N)(=O)=O)cc1 | 7.13 | 24.3 | 8.49 | > 41.7 | 5.75 | 15.3 | 2.17 | 5.41 | 2.52 | 7.4 | 5.11 | 13.6 | 0.107 | 2.68 µM | 5.55 | 24.2 | 4.21 | 14.9 | 4.82 | 16
16 | COc1cc2c3c(n(CCCBr)c(=O)c2cc1OC)-c1ccc(NC(C)=O)cc1C3=O | 1.17 | 44.1 | 5.68 | 65 | 4.33 | 20.6 | 0.574 | 12.6 | 4.37 | 24.9 | 5.28 | 27.2 | 2.69 | 8.47 µM | 0.506 | 7.31 | 5.4 | 25.2 | 40.6 | > 100
17 | CCCN(CCCCC(NC(C)=O)C(=O)NCc1ccccc1)C(=O)N(CCCl)N=O (configuration not stated) | – | > 74.9 | – | > 100 | – | > 100 | – | > 100 | – | > 100 | – | > 100 | – | > 100 µM | – | > 56.2 | – | > 89.4 | – | > 100
18 | COc1cc([N+](=O)[O-])ccc1NC(=O)C(F)(F)F | – | > 100 | – | > 100 | – | > 100 | – | > 100 | – | > 100 | – | > 100 | – | > 100 µM | – | > 100 | – | > 100 | – | > 100
19 | COc1ccc(-c2cc3c(nn2)-c2ccccc2C3=O)cc1 | > 100 | > 100 | > 100 | > 100 | > 100 | > 100 | 14.7 | > 100 | > 100 | > 100 | > 100 | > 100 | > 100 | > 100 µM | > 100 | > 100 | > 100 | > 100 | > 100 | > 100
20 | COc1cc(C2c3cc4c(cc3[C@H](OCCN(C)C)[C@@H]3COC(=O)C23)OCO4)cc(OC)c1O (some centres not stated) | 0.0409 | 0.898 | – | 1.71 | – | 2.58 | – | 0.778 | – | 4.08 | – | > 100 | – | 1.22 µM | – | 0.766 | – | 0.439 | – | 6.04
21 | O=C(O)C(Sc1ccc(Cl)cc1)Sc1ccc(Cl)cc1 | – | > 100 | – | > 100 | – | > 100 | – | > 100 | – | 82.6 | – | > 100 | – | 95.5 µM | – | > 100 | – | > 100 | – | > 100
22 | COc1ccc2cc(C(=O)/C=C/c3cccc(OC)c3OC)ccc2c1 | 7.9 | 22 | 17.5 | 31.3 | 4.58 | 16.6 | 2.88 | > 100 | 19 | 35.5 | 6.86 | > 100 | 13.3 | 26.6 µM | 18.3 | 37.5 | 4.26 | 16.6 | 25.5 | 73.9
23 | COc1cc(Cn2c(-c3ccccc3)cc3c2-c2oncc2CC3)cc(OC)c1OC | 0.947 | 35.4 | 3.23 | > 100 | 0.468 | 13.4 | 0.42 | 43.2 | 0.372 | 1.65 | 5.43 | > 100 | 0.271 | 2.06 µM | 0.452 | > 100 | 1.52 | 39.8 | 0.51 | > 100
24 | Cc1cc(C)cc(Nc2cc(C)nc3nc(C(F)(F)F)nn23)c1 | > 100 | > 100 | > 100 | > 100 | > 100 | > 100 | > 100 | > 100 | > 100 | > 100 | > 100 | > 100 | 29 | > 100 µM | > 100 | > 100 | 37.6 | > 100 | 34.9 | > 100
25 | O=C(CCCSc1nc(-c2ccc(Cl)cc2)cc(-c2ccc(Cl)cc2)n1)NO | 0.693 | 13 | 0.32 | 2.35 | – | – | 0.339 | 13 | 0.413 | 2.14 | 1.38 | 36.7 | 1.41 | 4.26 µM | 0.44 | 4.11 | 0.971 | 13.1 | 4.63 | 22.8
26 | COc1ccc(C2CC(=O)c3c(OC)cc(OC)cc3O2)cc1 (configuration not stated) | > 100 | > 100 | > 100 | > 100 | – | – | > 100 | > 100 | > 100 | > 100 | > 100 | > 100 | > 100 | > 100 µM | > 100 | > 100 | > 100 | > 100 | > 100 | > 100

Source: PubChem BioAssay (NCI)
